Experimental data published in patent US6037333A, “Microbe-inhibiting compositions” (Trustees of Tufts College, priority 1998, dated 2000).
“Also recorded” adds a separate entry of the source.

How the values were obtained:
Acanthamoeba = assay: Acanthamoeba-induced CPE assay, primary cultures of corneal epithelium; type: cell-based; conditions: primary cultures as target cells
Experimental: In vitro cytopathic assays were performed using cell cultures of corneal epithelium as target cells. Primary cell cultures of rabbit corneal epithelium were prepared according to published protocols (M. M. Jumblatt, Invest. Opthalmol. Visual Sci. 24:1139-43, 1983) using rabbit eyes from Pel-Freez Biologicals (N. Panjwani et al., Invest. Opthalmol. Visual Sci. 31:689-695, 1990) (Rogers, AK). Generally, seventy-five eyes were processed at a time. Primary cultures have limited life span and can only be passaged 2 to 3 times without significant alteration in cell morphology.
To characterize the role of carbohydrate-mediated host-parasite interactions in the Acanthamoeba-induced cytotoxicity of host cells, in vitro cytopathic assays were performed using both primary and immortalized cultures of corneal epithelium as host cells. Immortalized cells were assayed as confluent cultures in 24-well plates, and primary cells were assayed as confluent cells in 35-mm dishes or 6-well plates.
The parasites (>95% trophozoites) were rinsed three times in a serum-free Eagle's minimum essential medium supplemented with 0.4% bovine serum albumin (SFB) and aliquots of the parasite suspension (0.2×10^5 to 1×10^6 parasites/ml SFB medium, 300 μl/well for 24-well plates and 500 μl/well for 6-well plates or 35-mm dishes) were added to wells of confluent epithelial cultures which had been rinsed and preincubated in SFB medium for 2 hours. The plates were incubated at 37° C. in a CO2 incubator and periodically examined under a phase-contrast microscope for the presence of cell-free plaques in the monolayer for up to 28-30 hours. Control wells contained host cells without the parasites. At the end of the incubation period, the cultures were stained with Giemsa (Diff-Quik, Dade Diagnostic Inc., Aguada, PR). Approximate cell density in each well was estimated by scanning the stained plates in a calibrated, computer-assisted Bio-Image Scanner (Millipore, Ann Arbor, Mich.). Cytopathic effect (CPE) was expressed as percentage of the optical density by the following formula: [formula]
Primary cultures were less susceptible to amoeba-induced CPE, requiring 1×10^6 parasites/ml to completely destroy the monolayer within 24 hours. This parasite concentration was five times higher than that required to produce the same effect when immortalized cultures were used as target host cells.

proteinases P2 and P3 = assay: Zymography of media conditioned by amoebae with primary corneal epithelium, with or without α-Man; type: cell-based, Acanthamoeba; conditions: amoebae with host cells, adhesion blocked by saccharide
Experimental: To characterize the mechanism by which the mannose-mediated host-parasite interactions influence the amoeba-induced cytolysis and/or cytopathic effect, conditioned media obtained by incubating amoebae with primary cultures of corneal epithelium in the presence and absence of α-Man for 6 to 8 hours were analyzed by zymography. Media conditioned by only Acanthamoeba or only epithelial cells were also analyzed. Zymography was performed using separating gels containing 10% acrylamide and 2 mg/ml gelatin, essentially as described by D. E. Kleiner et al. (Anal Biochem. 218:325-329, 1994). Samples were diluted in the electrophoresis sample buffer (U. K. Laemmli, Nature 227:680-685, 1970) without mercaptoethanol and were applied to the gels. After electrophoresis, proteinases separated on the gels were renatured by incubating the gels in 2.5% Triton X-100 in 50 mM Tris-HCl, pH 7.5 to remove SDS. After incubating the gels for 18 hours in a developing buffer (50 mM Tris-HCl, pH 7.5 containing 10 mM CaCl2), the gels were stained with Coomassie brilliant blue. Areas of digestion were visualized as non-staining regions. In some experiments, samples were pre-treated with phenylmethylsulfonyl fluoride (PMSF, 1 mM), an inhibitor of […] for one hour prior to electrophoresis, or 1,10-phenanthroline (1 mM), an inhibitor of metalloproteinases, was added to the developing buffer.

CO[C@H]1O[C@H](CO)[C@@H](O)[C@H](O)[C@@H]1O [Methyl-α-D-mannopyranoside]
Inhibition of amoeba-induced CPE (Acanthamoeba): inhibited CPE | Expression of proteinase P2 (97 kD) (proteinases P2 and P3): robustly expressed | Expression of proteinase P3 (80 kD) (proteinases P2 and P3; listed as α-Man): not expressed; also recorded: not detected
